Results reported in US20090283050A1, “FEED COMPOSITION AND METHOD FOR BREEDING ANIMALS” (KENKO CORPORATION, priority 2005, published 2009).

Test system: Salmonella
Assay: Antimicrobial effect (MIC, MBC) on Salmonella
Type: cell-based
Conditions: compared with the other antimicrobial agents tested
Experimental: The antimicrobial effects of these samples were evaluated by the determination of Minimum Inhibitory Concentration (MIC) and Minimum Bactericidal Concentration (MBC).
In this connection, bacterial strains used herein were those obtained from enteric canal of broiler chicken.

## CC1(C)S[C@@H]2[C@H](NC(=O)[C@H](N)c3ccccc3)C(=O)N2[C@H]1C(=O)O [Ampicillin]
  antibacterial effect against Salmonella, in words: quite weak antibacterial effect
